According to patent publication US10954235B2, “Crystalline forms of valbenazine salts” (Sandoz AG, priority 2017, dated 2021):

Test: Differential scanning calorimetry (DSC), thermal stability
Assay type: physicochemical
Settings: heating rate 10 K/min; judged from first endotherm
Method: Differential scanning calorimetry (DSC) was performed with a DSC 7 (Perkin-Elmer, Norwalk, Conn., USA) using a Pyris 2.0 software. 4.7307±0.0005 mg sample (using a UM3 ultramicrobalance, Mettler, Greifensee, CH) were weighed into Al-Pans (25 microliter) and sealed with a cover, which was perforated by a needle. The sample was heated at a rate of 10 K/min. Dry nitrogen was used as the purge gas (purge rate: 20 mL/min). Differential scanning calorimetry (DSC) was performed with a DSC 7 (Perkin-Elmer, Norwalk, Conn., USA) using a Pyris 2.0 software. 7.115±0.0005 mg sample (using a UM3 ultramicrobalance, Mettler, Greifensee, CH) were weighed into Al-Pans (25 microliter) and sealed with a cover, which was perforated by a needle. The sample was heated at a rate of 10 K/min. Dry nitrogen was used as the purge gas (purge rate: 20 mL/min).

SMILES: COc1cc2c(cc1OC)[C@H]1C[C@@H](OC(=O)[C@@H](N)C(C)C)[C@H](CC(C)C)CN1CC2 [Example 1, ((S)-(2R,3R,11bR)-3-isobutyl-9,10-dimethoxy-2,3,4,6,7,11b-hexahydro-1H-pyrido[2,1-a]isoquinolin-2-yl 2-amino-3-methylbutanoate) ditosylate]
- stability against temperature stress (DSC): very stable against temperature stress
